# Source: patent US6911474B2, “Methods, compounds, and compositions for reducing body fat and modulating fatty acid metabolism” (The Regents of the University of California, priority 2001, dated 2005)
# Ends that are not written are not given here.
# How the values were obtained:
# [1] = Acute food intake in 24-h food-deprived rats after i.p. administration; assay type: in vivo, rat; conditions: 24-h food-deprived rats, 15 min before food presentation, FIG. 4a,b
# Protocol: Feeding experiments. Acute experiments. Food intake was measured in 24-h food-deprived rats (Navarro et al., J. Neurochem., 67:1982-1991 (1996)), administering drugs 15 min before food presentation. Subchronic experiments. Ad libitum fed rats received vehicle injections for three days. On day four, the animals were divided in two equal groups and gave them daily injections of vehicle or OEA (5 mg per kg at 1900 h) for 7 consecutive days, while measuring body weight, food intake and water intake.
# The effects of systemically administered OEA on food intake in rats can be assessed using a 24 h fast. […] To define the selectivity of this response, various OEA analogs were evaluated for their ability to produce hypophagia.
# Soleus muscle = test: [14C]oleate oxidation to CO2 in soleus muscle; assay type: cell-based, rat; conditions: soleus muscle, structure-activity relationship; FIG. 8
# [2] = Food intake in capsaicin-treated rats (sensory fibers destroyed); assay type: in vivo, rat; conditions: OEA 10 mg per kg, i.p., FIG. 6a,c
# Source text: Chemicals. FAEs and [^2H4] FAEs were synthesized in the laboratory (Giuffrida et al., “Lipid Second Messengers” (ed. Laychock, S. G. & Rubin, R. P.) 113-133 (CRC Press LLC, Boca Raton, Fla., 1998)); 1,2-dioleyl-sn-glycero-phosphoethanolamine-N-oleyl was purchased from Avanti Polar Lipids (Alabaster, Ala.); SR141716A was provided by RBI (Natick, Mass.) as part of the Chemical Synthesis Program of the NIMH (N01MH30003); SR144528 was a generous gift of Sanofi Recherche; all other drugs were from Tocris (Ballwin, Mo.) or Sigma (Saint Louis, Mo.). FAE were dissolved in dimethylsulphoxide (DMSO) and administered in 70% DMSO in sterile saline (acute treatments) or 5% Tween 80/5% propylenglycol in sterile saline (subchronic treatments) (1 ml per kg, i.p.). Capsaicin was administered in 10% Tween 80/10% ethanol/80% saline; SR141716A, SR144528, CCK-8 and CP-93129 in 5% Tween 80/5% propylenglycol/90% saline (1 ml per kg, i.p.).
# These findings support the hypothesis that OEA causes hypophagia by acting at a peripheral site, and that sensory fibers are required for this effect.
# [3] = Conditioned taste aversion; assay type: in vivo, rat; conditions: OEA 20 mg per kg, i.p.; lithium chloride 0.4 M, 7.5 ml per kg; FIG. 4c
# Protocol: Conditioned taste aversion. Rats were water-deprived for 24 h and then accustomed to drink from a graded bottle during a 30-min test period for four days. On day five, water was substituted with a 0.1% saccharin solution and, 30 min later, the animals received injections of vehicle, OEA (20 mg per kg) or lithium chloride (0.4 M, 7.5 ml per kg). During the following two days, water consumption was recorded over 30-min test periods. The animals were then presented with water or saccharin, and drinking measured.
Compound,suppression of food intake (hypophagia) [1],mimicking of the effect of OEA on skeletal muscle fatty acid oxidation (Soleus muscle),food intake response of capsaicin-treated rats [2],conditioned taste aversion [3]
"CCCCC/C=C\C/C=C\C/C=C\C/C=C\CCCC(=O)NCCO [Anandamide, arachidonylethanolamide, reference compound]",no effect,not,–,–
O=c1ccc2[nH]cc(C3=CCNCC3)c2[nH]1 [CP-93129],–,–,responded normally,–
"CCCCCCCCCCCCCCCC(=O)NCCO [Palmitylethanolamide, palmitylethanolamide]",active but significantly less potent than OEA,only partially,–,–
[Cl-].[Li+] [lithium chloride],–,–,–,readily provoked
"CCCCCCCC/C=C\CCCCCCCC(=O)O [oleic acid, reference compound]",no effect,not,–,–
"cholecystokinin-8 (DYMGWMDF; ends and bridges not checked; UniProt P06307 96-103, looked up) [CCK-8, peripherally administered cholecystokinin-8]",–,–,failed to respond,–
